ChEMBL document CHEMBL6087420, “Synthesis and pharmacodynamic evaluation of 2-aminoindole derivatives against influenza A virus in vitro/vivo” (Eur J Med Chem, 2025)
The source made the active and inactive calls. No cut-off for these calls is given here.

Key:
[1] = tested on: Influenza A virus; assay: Anti-influenza activity against influenza A virus H1NI (A/Weiss/43) infected in dog MDCK cells assessed as virus inhibition rate at 100 uM incubated for 72 hrs by MTT assay; assay type: functional, organism-based
[2] = tested on: Influenza A virus; assay: Anti-influenza activity against influenza A virus H1NI (A/Weiss/43) infected in dog MDCK cells assessed as virus inhibition rate at 0.625 uM incubated for 72 hrs by MTT assay; assay type: functional, organism-based
[3] = Cytotoxicity against dog MDCK cells after 72 hrs incubation by MTT assay; assay type: toxicity, cell-based, Canis lupus familiaris
[4] = tested on: Influenza A virus; assay: Inhibition of influenza A virus infection induced apoptosis in MDCK cells infected with influenza virus assessed as viable cells at 50 uM incubated for 36 hrs by AnnexinV-FITC/PI staining based flow cytometry (reference value: 66.9%); assay type: functional
[5] = tested on: Influenza A virus; assay: Inhibition of influenza A virus infection induced apoptosis in MDCK cells infected with influenza virus assessed as early apoptotic cells at 50 uM incubated for 36 hrs by AnnexinV-FITC/PI staining based flow cytometry (reference value: 18.2%); assay type: functional; set-up: scale not given: the % may be the effect or the level left
[6] = tested on: Influenza A virus; assay: Anti-influenza activity against influenza A virus H1NI (A/Virginia/ATCC2/2009) infected in dog MDCK cells incubated for 72 hrs by MTT assay; assay type: functional, organism-based
[7] = tested on: Influenza A virus; assay: Anti-influenza activity against influenza A virus H1NI (A/Weiss/43) infected in dog MDCK cells assessed as virus inhibition rate incubated for 72 hrs by MTT assay; assay type: functional, organism-based
[8] = tested on: Influenza A virus; assay: Inhibition of influenza A virus infection induced apoptosis in MDCK cells infected with influenza virus assessed as necrotic cells at 50 uM incubated for 36 hrs by AnnexinV-FITC/PI staining based flow cytometry (reference value: 1.79%); assay type: functional; set-up: scale not given: the % may be the effect or the level left
[9] = tested on: Influenza A virus; assay: Inhibition of influenza A virus infection induced apoptosis in MDCK cells infected with influenza virus assessed as late apoptotic cells at 50 uM incubated for 36 hrs by AnnexinV-FITC/PI staining based flow cytometry (reference value: 13.2%); assay type: functional; set-up: scale not given: the % may be the effect or the level left
[10] = Selectivity index, ratio of CC50 for dog MDCK cells to EC50 for antiviral activity against Influenza A virus H1N1 (A/Weiss/43) infected in MDCK cells; assay type: toxicity, cell-based
[11] = Selectivity index, ratio of CC50 for dog MDCK cells to EC50 for antiviral activity against Influenza A virus H1NI (A/Virginia/ATCC2/2009) infected in MDCK cells; assay type: toxicity, cell-based; conditions: read-out: Selectivity Index
[12] = tested on: Influenza A virus; assay: Anti-influenza activity against influenza A virus H3N2 (A/California/2014) infected in dog MDCK cells incubated for 72 hrs by MTT assay; assay type: functional, organism-based
[13] = Selectivity index, ratio of CC50 for dog MDCK cells to EC50 for antiviral activity against Influenza A virus […] H3N2 (A/California/2014) infected in MDCK cells; assay type: toxicity, cell-based; conditions: read-out: Selectivity Index

SMILES	Activity [1]	Virus inhibition rate at 0.625 uM [2]	CC50 at 72 h [3]	further results
Cc1ccc(S(=O)(=O)n2c(NS(C)(=O)=O)c(-c3ccccc3C)c3ccccc32)cc1	inactive	Not_active	43 µM	
Cc1ccc(S(=O)(=O)n2c(NS(C)(=O)=O)c(-c3ccccc3)c3ccc(C)cc32)cc1	inactive	Not_active	5.45 µM	
Cc1ccc(S(=O)(=O)n2c(NS(=O)(=O)c3ccccc3)c(-c3ccccc3)c3ccccc32)cc1	inactive	Not_active	109 µM	
Cc1ccc(S(=O)(=O)n2c(NS(C)(=O)=O)c(-c3ccccc3)c3cc(F)ccc32)cc1	inactive	Not_active	24.4 µM	
Cc1ccc(S(=O)(=O)n2c(NS(C)(=O)=O)c(-c3cccs3)c3ccccc32)cc1	inactive	Not_active	53.6 µM	
Cc1ccc(S(=O)(=O)n2c(NS(C)(=O)=O)c(-c3cccc(F)c3)c3ccccc32)cc1	inactive	Not_active	55 µM	
COc1ccc2c(-c3ccccc3)c(NS(C)(=O)=O)n(S(=O)(=O)c3ccc(C)cc3)c2c1	inactive	Not_active	31.6 µM	
Cc1ccc(S(=O)(=O)n2c(NS(C)(=O)=O)c(-c3ccc(Br)cc3)c3ccccc32)cc1	inactive	Not_active	13.2 µM	
Cc1ccc(S(=O)(=O)n2c(NS(C)(=O)=O)c(-c3cccc(C)c3)c3ccccc32)cc1	inactive	Not_active	16.5 µM	
Cc1ccc(S(=O)(=O)n2c(NS(=O)(=O)c3ccc(Cl)cc3)c(-c3ccccc3)c3ccccc32)cc1	inactive	Not_active	< 6.25 µM	
Cc1ccc(S(=O)(=O)n2c(NS(C)(=O)=O)c(-c3ccc(Cl)cc3)c3ccccc32)cc1	inactive	Not_active	14.8 µM	
Cc1ccc(S(=O)(=O)n2c(NS(C)(=O)=O)c(-c3ccccc3)c3c(C)cc(C)cc32)cc1	inactive	Not_active	357 µM	
CCOC(=O)C1=C[C@@H](OC(CC)CC)[C@H](NC(C)=O)[C@@H](N)C1 [OSELTAMIVIR]			> 800 µM	Activity [4]: 91.7%; Activity [5]: 3.85%; EC50 ([6]; Influenza A virus, H1NI (A/Virginia/ATCC2/2009), MDCK, 72 h): 11.7 µM; EC50 [7]: 7.1 µM; Activity [8]: 2.11%; Activity [9]: 2.33%; selectivity ratio ([10]; read-out: Selectivity Index): > 107; selectivity ratio [11]: > 68.6; EC50 [12]: 26.3 µM; selectivity ratio [13]: > 30.4
Cc1ccc(S(=O)(=O)n2c(NS(C)(=O)=O)c(-c3ccccc3)c3ccc(F)cc32)cc1	inactive	Not_active	22.8 µM	
Cc1ccc(S(=O)(=O)n2c(NS(C)(=O)=O)c(-c3ccccc3Cl)c3ccccc32)cc1	inactive	Not_active	20.9 µM	
COc1ccc(S(=O)(=O)Nc2c(-c3ccccc3)c3ccccc3n2S(=O)(=O)c2ccc(C)cc2)cc1	inactive	Not_active	434 µM	
Cc1ccc(S(=O)(=O)n2c(NS(C)(=O)=O)c(-c3ccccc3)c3cc(C)ccc32)cc1	inactive	Not_active	21.3 µM	

SMILES	Activity [1]	Virus inhibition rate at 0.625 uM [2]	CC50 at 72 h [3]	further results
Cc1ccc(-c2c(NS(C)(=O)=O)n(S(=O)(=O)c3ccc(C)cc3)c3ccccc23)cc1	inactive	Not_active	14.1 µM	
CS(=O)(=O)Nc1c(-c2ccccc2)c2ccccc2n1S(C)(=O)=O	inactive	Not_active	341 µM	
Cc1ccc(S(=O)(=O)n2c(NS(C)(=O)=O)c(-c3ccccc3)c3ccccc32)cc1	inactive	Not_active	59 µM	
Cc1ccc(S(=O)(=O)n2c(NS(C)(=O)=O)c(-c3ccccc3)c3cc(Cl)ccc32)cc1	inactive	Not_active	12.8 µM	
Cc1ccc(S(=O)(=O)n2c(NS(C)(=O)=O)c(-c3ccccc3F)c3ccccc32)cc1	inactive	Not_active	< 6.25 µM	
Cc1ccc(S(=O)(=O)n2c(NS(C)(=O)=O)c(-c3ccc(F)cc3)c3ccccc32)cc1	inactive	Not_active	41 µM	
COc1ccc(-c2c(NS(C)(=O)=O)n(S(=O)(=O)c3ccc(C)cc3)c3ccccc23)cc1			43.6 µM	EC50 [7]: 2 µM; selectivity ratio ([10]; read-out: Ratio CC50/EC50): 21.8
CS(=O)(=O)Nc1c(-c2ccccc2)c2ccccc2n1S(=O)(=O)c1ccc(Cl)cc1	inactive	Not_active	14.6 µM	
Cc1ccc(S(=O)(=O)n2c(NS(C)(=O)=O)c(-c3ccccc3)c3cc(Br)ccc32)cc1	inactive	Not_active	< 6.25 µM	
NC(=O)c1ncn([C@@H]2O[C@H](CO)[C@@H](O)[C@H]2O)n1 [RIBAVIRIN]			513 µM	Activity [4]: 92.8%; Activity [5]: 3.8%; EC50 ([6]; mdck): 8.2 µM; EC50 [7]: 7.33 µM; Activity [8]: 1.74%; Activity [9]: 1.62%; selectivity ratio ([10]; read-out: Selectivity Index): 70; selectivity ratio [11]: 62.6; EC50 [12]: 12.8 µM; selectivity ratio [13]: 40
Cc1ccc(S(=O)(=O)n2c(NS(C)(=O)=O)c(-c3cccc(Br)c3)c3ccccc32)cc1	inactive	Not_active	16.9 µM	
CS(=O)(=O)Nc1c(-c2ccccc2)c2ccccc2n1S(=O)(=O)c1ccc([N+](=O)[O-])cc1	inactive	Not_active	55.6 µM	
Cc1ccc(S(=O)(=O)Nc2c(-c3ccccc3)c3ccccc3n2S(=O)(=O)c2ccc(C)cc2)cc1	inactive	Not_active	414 µM	
CS(=O)(=O)Nc1c(-c2ccccc2)c2ccccc2n1S(=O)(=O)c1ccccc1	inactive	Not_active	36.4 µM	
Cc1ccc(S(=O)(=O)n2c(NS(=O)(=O)c3ccc([N+](=O)[O-])cc3)c(-c3ccccc3)c3ccccc32)cc1	inactive	Not_active	< 6.25 µM	
COc1ccc(S(=O)(=O)n2c(NS(C)(=O)=O)c(-c3ccccc3)c3ccccc32)cc1	inactive	Not_active	12.6 µM	
Cc1ccc(S(=O)(=O)n2c(NS(C)(=O)=O)c(-c3cccc(Cl)c3)c3ccccc32)cc1	inactive	Not_active	67.1 µM	
